Legend:
Homo sapiens [1] = species: Homo sapiens; test: Estrogen ERbeta Eurofins-Panlabs radioligand binding assay; conditions: Compound concentration 10.0 uM
[2] = biological target: Growth hormone secretagogue receptor type 1 (Homo sapiens) (UniProt Q92847); conditions: Compound concentration 10.0 uM
Mus musculus = species: Mus musculus; test: Inhibition of Phorbol Ester at 10 µM in the Eurofins-Panlabs radioligand binding assay (Eurofins_assay_264500); design: ligand concentration 3 nM; conditions: Compound concentration 10.0 uM
[3] = biological target: Histamine H4 receptor (Homo sapiens) (UniProt Q9H3N8); conditions: Compound concentration 10.0 uM
[4] = biological target: Beta-1 adrenergic receptor (Homo sapiens) (UniProt P08588); conditions: Compound concentration 10.0 uM
Rattus norvegicus [5] = species: Rattus norvegicus; test: Inhibition of Glutamate, NMDA, Phencyclidine at 10 µM in the Eurofins-Panlabs radioligand binding assay (Eurofins_assay_233000); type: protein-complex assay; conditions: Compound concentration 10.0 uM
[6] = biological target: 5-hydroxytryptamine receptor 1D (Homo sapiens) (UniProt P28221); conditions: Compound concentration 10.0 uM
[7] = biological target: Endothelin-1 receptor (Homo sapiens) (UniProt P25101); conditions: Compound concentration 10.0 uM
[8] = biological target: T1, D(4) dopamine receptor (Homo sapiens) (UniProt P21917); test: Inhibition of Dopamine D4.2 at 10 µM in the Eurofins-Panlabs radioligand binding assay (Eurofins_assay_219900); design: ligand concentration 0.5 nM; conditions: Compound concentration 10.0 uM
T1 sequence (whole entry): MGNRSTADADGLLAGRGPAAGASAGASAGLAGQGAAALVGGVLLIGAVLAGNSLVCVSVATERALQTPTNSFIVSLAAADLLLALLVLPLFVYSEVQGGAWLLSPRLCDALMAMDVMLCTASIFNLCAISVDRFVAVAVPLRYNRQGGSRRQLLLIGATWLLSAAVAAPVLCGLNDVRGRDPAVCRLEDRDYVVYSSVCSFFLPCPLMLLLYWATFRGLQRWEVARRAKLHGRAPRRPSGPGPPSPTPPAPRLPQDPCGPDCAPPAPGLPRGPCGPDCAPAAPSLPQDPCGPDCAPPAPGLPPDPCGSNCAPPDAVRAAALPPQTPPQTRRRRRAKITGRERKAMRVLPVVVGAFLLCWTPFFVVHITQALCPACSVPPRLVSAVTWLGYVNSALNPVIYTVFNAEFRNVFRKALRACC

Rattus norvegicus [9] = species: Rattus norvegicus; test: Inhibition of Imidazoline I2, Central at 10 µM in the Eurofins-Panlabs radioligand binding assay (Eurofins_assay_241000); design: ligand concentration 2 nM; conditions: Compound concentration 10.0 uM
Rattus norvegicus [10] = species: Rattus norvegicus; test: Adrenergic α1, Non-selective Eurofins-Panlabs radioligand binding assay; type: protein assay; conditions: Compound concentration 10.0 uM
[11] = biological target: Beta-2 adrenergic receptor (Homo sapiens, UniProt P07550); conditions: Compound concentration 10.0 uM
Homo sapiens [12] = species: Homo sapiens; test: Cholecystokinin CCK2 (CCKB) Eurofins-Panlabs radioligand binding assay; design: ligand concentration 0.072 nM, non-specific ligand with concentration 1 µM Sincalide, incubation time 3 h, incubation temperature 25 °C; conditions: Compound concentration 10.0 uM
[13] = biological target: Glutamate receptor ionotropic, kainate (Rattus norvegicus) (UniProt P22756+Q01812+P42260+P42264+Q63273); test: Inhibition of Glutamate, Kainate at 10 µM in the Eurofins-Panlabs radioligand binding assay (Eurofins_assay_232700); conditions: Compound concentration 10.0 uM
[14] = biological target: Sodium-dependent noradrenaline transporter (Homo sapiens) (UniProt P23975); conditions: Compound concentration 10.0 uM
[15] = biological target: Histamine H1 receptor (Homo sapiens) (UniProt P35367); conditions: Compound concentration 10.0 uM
[16] = biological target: Mu-type opioid receptor (Homo sapiens) (UniProt P35372); conditions: Compound concentration 10.0 uM
[17] = biological target: T2, GABA-A receptor; anion channel (Rattus norvegicus) (UniProt O09028+P15431+P18506+P18508+P19969+P20236+P23574+P23576+P28471+P28473+P30191+P62813+P63079+P63138+Q91ZM7+Q9ES14); conditions: Compound concentration 10.0 uM
[18] = biological target: 5-hydroxytryptamine receptor 4 (Homo sapiens) (UniProt Q13639); test: Inhibition of Serotonin (5-Hydroxytryptamine) 5-HT4 at 10 µM in the Eurofins-Panlabs radioligand binding assay (Eurofins_assay_272000); conditions: Cavia porcellus; Compound concentration 10.0 uM
[19] = biological target: Kappa-type opioid receptor (Homo sapiens) (UniProt P41145); conditions: Compound concentration 10.0 uM
Rattus norvegicus [20] = species: Rattus norvegicus; test: Adrenergic α2, Non-selective Eurofins-Panlabs radioligand binding assay; type: protein assay; conditions: Compound concentration 10.0 uM
[21] = biological target: T2, GABA-A receptor; anion channel (Rattus norvegicus); test: Inhibition of GABAA, Muscimol, Central at 10 µM in the Eurofins-Panlabs radioligand binding assay (Eurofins_assay_226500); type: protein-complex assay; conditions: Compound concentration 10.0 uM
Rattus norvegicus [22] = species: Rattus norvegicus; conditions: Compound concentration 10.0 uM
[23] = biological target: Platelet-activating factor receptor (Homo sapiens) (UniProt P25105); test: Inhibition of Platelet Activating Factor (PAF) at 10 µM in the Eurofins-Panlabs radioligand binding assay (Eurofins_assay_265010); conditions: Compound concentration 10.0 uM
[24] = biological target: Beta-3 adrenergic receptor (Homo sapiens) (UniProt P13945); conditions: Compound concentration 10.0 uM
[25] = biological target: Glutamate receptor 2 (Homo sapiens) (UniProt P42262); conditions: Rattus norvegicus; Compound concentration 10.0 uM
[26] = biological target: D(1A) dopamine receptor (Homo sapiens) (UniProt P21728); conditions: Compound concentration 10.0 uM
[27] = biological target: 5-hydroxytryptamine receptor 1A (Homo sapiens) (UniProt P08908); conditions: Compound concentration 10.0 uM
[28] = biological target: Histamine H3 receptor (Homo sapiens) (UniProt Q9Y5N1); conditions: Compound concentration 10.0 uM
[29] = biological target: Free fatty acid receptor 1 (Homo sapiens, UniProt O14842); test: FFAR1 binding assay
[30] = biological target: D(1A) dopamine receptor (Homo sapiens) (UniProt P21728); conditions: Compound concentration 10.0 uM; remark: listed apart in the source
[31] = biological target: B1 bradykinin receptor (Homo sapiens) (UniProt P46663); test: Inhibition of Bradykinin B1 at 10 µM in the Eurofins-Panlabs radioligand binding assay (Eurofins_assay_212510); conditions: Compound concentration 10.0 uM
[32] = biological target: Mu-type opioid receptor (Homo sapiens) (UniProt P35372); conditions: Compound concentration 10.0 uM; remark: listed apart in the source
[33] = biological target: Endothelin receptor type B (Homo sapiens) (UniProt P24530); conditions: Compound concentration 10.0 uM
[34] = biological target: D(1B) dopamine receptor (Homo sapiens) (UniProt P21918); conditions: Compound concentration 10.0 uM
[35] = biological target: Sodium-dependent dopamine transporter (Homo sapiens, UniProt Q01959); conditions: Compound concentration 10.0 uM
[36] = biological target: Glycogen synthase kinase-3 beta (Homo sapiens) (UniProt P49841); test: Protein Serine/Threonine Kinase, GSK-3β Eurofins-Panlabs enzyme assay; design: substrate with concentration; conditions: Compound concentration 10.0 uM

Sequence of D(1A) dopamine receptor (Homo sapiens) (P21728 whole entry): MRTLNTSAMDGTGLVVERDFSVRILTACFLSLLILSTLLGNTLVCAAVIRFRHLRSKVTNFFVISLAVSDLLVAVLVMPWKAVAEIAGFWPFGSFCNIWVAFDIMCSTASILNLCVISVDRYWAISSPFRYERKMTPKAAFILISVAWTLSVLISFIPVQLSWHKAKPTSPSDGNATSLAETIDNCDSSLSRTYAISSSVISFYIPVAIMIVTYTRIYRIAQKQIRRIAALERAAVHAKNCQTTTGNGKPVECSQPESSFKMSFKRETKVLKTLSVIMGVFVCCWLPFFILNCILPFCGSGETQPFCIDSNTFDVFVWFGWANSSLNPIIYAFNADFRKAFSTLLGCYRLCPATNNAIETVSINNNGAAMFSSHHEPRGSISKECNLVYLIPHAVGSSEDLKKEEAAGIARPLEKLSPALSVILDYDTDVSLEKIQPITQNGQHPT
Sequence of Mu-type opioid receptor (Homo sapiens) (P35372 whole entry): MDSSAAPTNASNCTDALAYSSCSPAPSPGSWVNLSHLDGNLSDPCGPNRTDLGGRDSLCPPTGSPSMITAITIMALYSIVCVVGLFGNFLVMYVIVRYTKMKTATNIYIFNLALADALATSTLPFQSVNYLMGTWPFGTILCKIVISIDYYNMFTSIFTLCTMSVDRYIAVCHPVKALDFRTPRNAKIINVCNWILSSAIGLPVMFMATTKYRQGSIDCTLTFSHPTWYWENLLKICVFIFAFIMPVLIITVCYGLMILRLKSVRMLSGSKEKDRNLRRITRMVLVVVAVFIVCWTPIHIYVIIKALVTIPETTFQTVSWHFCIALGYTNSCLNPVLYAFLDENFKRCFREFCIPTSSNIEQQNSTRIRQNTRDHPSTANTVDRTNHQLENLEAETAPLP
Sequence of Glutamate receptor 2 (Homo sapiens) (P42262 whole entry): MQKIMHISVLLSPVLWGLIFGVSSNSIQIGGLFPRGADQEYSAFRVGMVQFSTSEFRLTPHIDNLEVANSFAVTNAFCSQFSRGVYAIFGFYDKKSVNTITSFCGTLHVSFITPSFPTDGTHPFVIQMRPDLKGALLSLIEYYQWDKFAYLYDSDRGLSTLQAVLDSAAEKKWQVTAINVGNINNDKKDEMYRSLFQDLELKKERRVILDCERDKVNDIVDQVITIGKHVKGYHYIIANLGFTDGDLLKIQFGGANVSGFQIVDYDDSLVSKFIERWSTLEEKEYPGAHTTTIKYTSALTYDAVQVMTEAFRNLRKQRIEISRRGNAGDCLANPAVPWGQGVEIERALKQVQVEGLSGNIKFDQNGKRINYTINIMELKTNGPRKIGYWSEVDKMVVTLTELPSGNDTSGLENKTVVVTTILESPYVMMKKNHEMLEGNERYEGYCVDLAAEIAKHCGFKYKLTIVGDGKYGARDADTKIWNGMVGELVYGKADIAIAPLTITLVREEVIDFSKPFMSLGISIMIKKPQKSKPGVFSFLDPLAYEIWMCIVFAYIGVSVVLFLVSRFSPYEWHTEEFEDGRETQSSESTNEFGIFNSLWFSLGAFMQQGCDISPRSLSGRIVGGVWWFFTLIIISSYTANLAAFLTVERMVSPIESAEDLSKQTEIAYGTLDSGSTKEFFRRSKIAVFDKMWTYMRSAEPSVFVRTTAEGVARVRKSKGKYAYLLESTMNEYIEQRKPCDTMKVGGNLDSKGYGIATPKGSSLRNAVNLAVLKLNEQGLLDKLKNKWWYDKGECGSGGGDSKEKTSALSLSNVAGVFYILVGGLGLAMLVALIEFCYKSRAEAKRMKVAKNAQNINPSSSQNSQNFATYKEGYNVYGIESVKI
Sequence of Platelet-activating factor receptor (Homo sapiens) (P25105 whole entry): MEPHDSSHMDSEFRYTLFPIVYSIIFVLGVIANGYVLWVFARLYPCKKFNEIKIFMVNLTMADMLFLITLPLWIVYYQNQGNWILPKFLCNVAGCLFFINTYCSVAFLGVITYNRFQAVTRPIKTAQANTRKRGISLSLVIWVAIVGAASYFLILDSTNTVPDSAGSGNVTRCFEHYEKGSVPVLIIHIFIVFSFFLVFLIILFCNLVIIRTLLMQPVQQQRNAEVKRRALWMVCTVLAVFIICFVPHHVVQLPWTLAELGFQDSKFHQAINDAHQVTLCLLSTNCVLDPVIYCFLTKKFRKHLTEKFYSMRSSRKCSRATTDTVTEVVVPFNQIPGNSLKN
Sequence of Histamine H1 receptor (Homo sapiens) (P35367 whole entry): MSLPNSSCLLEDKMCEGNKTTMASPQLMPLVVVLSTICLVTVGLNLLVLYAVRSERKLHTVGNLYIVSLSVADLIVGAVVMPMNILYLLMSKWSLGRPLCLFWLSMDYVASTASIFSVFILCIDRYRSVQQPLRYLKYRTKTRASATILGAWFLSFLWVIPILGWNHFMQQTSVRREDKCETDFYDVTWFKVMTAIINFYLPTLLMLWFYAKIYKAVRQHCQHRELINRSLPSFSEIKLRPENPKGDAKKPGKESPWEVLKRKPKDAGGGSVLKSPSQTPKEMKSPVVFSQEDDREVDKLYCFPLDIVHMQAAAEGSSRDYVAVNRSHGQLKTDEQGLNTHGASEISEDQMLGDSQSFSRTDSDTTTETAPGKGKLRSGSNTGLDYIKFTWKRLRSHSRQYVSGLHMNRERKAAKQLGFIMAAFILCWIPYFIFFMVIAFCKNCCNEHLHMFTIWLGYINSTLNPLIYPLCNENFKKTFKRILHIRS
Sequence of B1 bradykinin receptor (Homo sapiens) (P46663 whole entry): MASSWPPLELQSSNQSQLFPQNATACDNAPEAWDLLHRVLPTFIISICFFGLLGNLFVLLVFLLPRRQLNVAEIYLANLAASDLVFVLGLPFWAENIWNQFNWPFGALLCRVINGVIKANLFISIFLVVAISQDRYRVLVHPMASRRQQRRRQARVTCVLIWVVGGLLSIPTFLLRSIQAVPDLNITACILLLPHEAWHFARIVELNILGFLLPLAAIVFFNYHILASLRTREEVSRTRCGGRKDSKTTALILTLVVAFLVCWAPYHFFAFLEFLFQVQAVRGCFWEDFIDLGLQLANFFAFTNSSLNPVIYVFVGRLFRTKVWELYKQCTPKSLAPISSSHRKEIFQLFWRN
Sequence of Sodium-dependent dopamine transporter (Q01959 whole entry): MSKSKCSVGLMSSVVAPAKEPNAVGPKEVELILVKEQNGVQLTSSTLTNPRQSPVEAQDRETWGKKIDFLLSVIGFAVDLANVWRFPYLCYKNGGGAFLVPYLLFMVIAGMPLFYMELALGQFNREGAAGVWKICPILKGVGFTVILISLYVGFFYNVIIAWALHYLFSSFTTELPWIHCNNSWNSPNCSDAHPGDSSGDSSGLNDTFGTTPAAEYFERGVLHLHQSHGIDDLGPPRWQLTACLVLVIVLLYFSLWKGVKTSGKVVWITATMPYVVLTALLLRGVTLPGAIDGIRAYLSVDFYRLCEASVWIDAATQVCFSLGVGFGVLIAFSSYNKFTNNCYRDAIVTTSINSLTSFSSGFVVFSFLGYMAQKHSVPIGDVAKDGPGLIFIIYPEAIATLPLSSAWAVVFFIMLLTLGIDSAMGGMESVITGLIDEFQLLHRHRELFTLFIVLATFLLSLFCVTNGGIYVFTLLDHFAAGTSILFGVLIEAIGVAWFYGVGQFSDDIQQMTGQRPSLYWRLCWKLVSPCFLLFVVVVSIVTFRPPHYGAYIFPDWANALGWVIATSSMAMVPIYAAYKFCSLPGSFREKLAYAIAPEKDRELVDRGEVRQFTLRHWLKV
Sequence of 5-hydroxytryptamine receptor 1D (Homo sapiens) (P28221 whole entry): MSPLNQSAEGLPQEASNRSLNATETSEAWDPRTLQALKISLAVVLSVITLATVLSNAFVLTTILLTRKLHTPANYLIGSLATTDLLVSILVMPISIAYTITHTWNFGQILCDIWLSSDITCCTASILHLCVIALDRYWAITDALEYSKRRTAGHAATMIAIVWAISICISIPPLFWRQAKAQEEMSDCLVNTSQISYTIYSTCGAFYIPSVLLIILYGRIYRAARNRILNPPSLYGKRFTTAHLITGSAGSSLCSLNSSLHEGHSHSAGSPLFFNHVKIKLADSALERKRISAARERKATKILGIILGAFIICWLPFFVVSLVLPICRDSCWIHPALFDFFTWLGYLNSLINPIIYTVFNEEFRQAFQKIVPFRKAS
Sequence of Endothelin receptor type B (Homo sapiens) (P24530 whole entry): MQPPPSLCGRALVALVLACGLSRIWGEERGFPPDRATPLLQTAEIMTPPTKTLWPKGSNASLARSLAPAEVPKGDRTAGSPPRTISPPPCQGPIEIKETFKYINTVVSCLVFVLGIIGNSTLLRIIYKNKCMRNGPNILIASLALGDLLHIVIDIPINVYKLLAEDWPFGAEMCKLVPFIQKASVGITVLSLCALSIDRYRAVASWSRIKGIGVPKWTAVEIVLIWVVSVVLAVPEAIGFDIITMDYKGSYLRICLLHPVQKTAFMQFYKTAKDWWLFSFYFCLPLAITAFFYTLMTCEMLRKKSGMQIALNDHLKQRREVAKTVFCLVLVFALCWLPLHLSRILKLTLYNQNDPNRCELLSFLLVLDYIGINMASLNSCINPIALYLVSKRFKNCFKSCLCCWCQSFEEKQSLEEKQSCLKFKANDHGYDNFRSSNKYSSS
Sequence of Growth hormone secretagogue receptor type 1 (Homo sapiens) (Q92847 whole entry): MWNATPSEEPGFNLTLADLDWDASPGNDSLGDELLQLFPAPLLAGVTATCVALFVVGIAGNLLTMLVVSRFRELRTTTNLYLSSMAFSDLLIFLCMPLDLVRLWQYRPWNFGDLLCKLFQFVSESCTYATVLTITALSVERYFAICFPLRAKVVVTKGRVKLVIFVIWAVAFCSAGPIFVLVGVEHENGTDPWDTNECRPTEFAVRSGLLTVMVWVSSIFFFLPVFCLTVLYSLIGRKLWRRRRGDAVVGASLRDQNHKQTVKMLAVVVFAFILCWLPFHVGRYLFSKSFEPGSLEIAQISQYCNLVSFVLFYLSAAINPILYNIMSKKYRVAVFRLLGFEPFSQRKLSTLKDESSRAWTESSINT

Structure (SMILES)	inhibition (Homo sapiens [1]) [%]	inhibition [2] [%]	inhibition (Mus musculus) [%]	inhibition [3] [%]	inhibition [4] [%]	inhibition (Rattus norvegicus [5]) [%]	inhibition [6] [%]	inhibition [7] [%]	inhibition [8] [%]	inhibition (Rattus norvegicus [9]) [%]	inhibition (Rattus norvegicus [10]) [%]	inhibition [11] [%]	inhibition [13] [%]	inhibition [14] [%]	inhibition [15] [%]	inhibition [16] [%]	inhibition [17] [%]	inhibition [18] [%]	inhibition [19] [%]	inhibition (Rattus norvegicus [20]) [%]	further results
Cc1cc(OC2CCS(=O)(=O)CC2)cc(C)c1-c1cccc(COc2ccc(C(=O)O)c(F)c2)c1	8	-1	-3	17.4	-4	5	29.5	-2	6	3	-1	-7	8	5	2	10	19.5	-8	4.04	6	inhibition (Homo sapiens [12]): 5%; inhibition [21]: 8%; inhibition (Rattus norvegicus [22]): 7%; inhibition [23]: 2%; inhibition [24]: -3%; inhibition [25]: -3%; inhibition [26]: -3%; inhibition [27]: -6.09%; inhibition [28]: 6.7%; Ki [29]: > 10 µM (not active); inhibition [30]: 20.9%; inhibition [31]: 19%; inhibition [32]: -7.84%; inhibition [33]: 15%; inhibition [34]: 17.5%; inhibition [35]: -8%
Cc1cc(OC2CCS(=O)(=O)CC2)cc(C)c1-c1cccc(COc2ccc(CCC(=O)O)c(F)c2)c1	20	2	-9	10.8	5	-4	35.8	-2	9	-7	-2	3	-10	22	-7	5	23.7	8	10.2	8	inhibition [21]: 3%; inhibition (Rattus norvegicus [22]): -4%; inhibition [23]: 4%; inhibition [36]: 19%; inhibition [24]: 15%; inhibition [25]: 4%; inhibition [26]: 24%; inhibition [27]: 1.37%; inhibition [28]: 21.1%; inhibition [30]: 13.7%; inhibition [31]: 14%; inhibition [32]: 1.32%; inhibition [33]: 0%; inhibition [34]: 32.2%; inhibition [35]: 5%

Reference: ChEMBL document CHEMBL5058642, “Data for DCP probe TP-051” (2022)
